Measured values from US6737383B1, “Herbicidal oxadiazolidines” (priority 1999, dated 2004).

Key:
bedstraw = test: Test B pre/postemergence bedstraw; assay type: in vivo, Galium aparine
In short: (§1)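 Test chemicals in a non-phytotoxic solvent mixture with surfactant were sprayed preemergence onto planted seeds and postemergence onto plants 2 to 18 cm tall (1- to 4-leaf stage). After twelve to sixteen days in a greenhouse, injury was visually rated against untreated controls from 0 (no effect) to 10 (complete control).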

blackgrass = test: Test B pre/postemergence blackgrass; assay type: in vivo, Alopecurus myosuroides
In short: as §1

surinam grass = test: Test B pre/postemergence surinam grass; assay type: in vivo, Brachiaria decumbens
In short: as §1

cocklebur = test: Test B pre/postemergence cocklebur; assay type: in vivo, Xanthium strumarium
In short: as §1

corn = test: Test B pre/postemergence corn; assay type: in vivo, Zea mays
In short: as §1

crabgrass = test: Test B pre/postemergence crabgrass; assay type: in vivo, Digitaria sanguinalis
In short: as §1

giant foxtail = test: Test B pre/postemergence giant foxtail; assay type: in vivo, Setaria faberii
In short: as §1

morningglory = test: Test B pre/postemergence morningglory; assay type: in vivo, Ipomoea hederacea
In short: as §1

pigweed = test: Test B pre/postemergence pigweed; assay type: in vivo, Amaranthus retroflexus
In short: as §1

rape = test: Test B pre/postemergence rape; assay type: in vivo, Brassica napus
In short: as §1

soybean = test: Test B pre/postemergence soybean; assay type: in vivo, Glycine max
In short: as §1

sugar beet = test: Test B pre/postemergence sugar beet; assay type: in vivo, Beta vulgaris
In short: as §1

velvetleaf = test: Test B pre/postemergence velvetleaf; assay type: in vivo, Abutilon theophrasti
In short: as §1

wheat = test: Test B pre/postemergence wheat; assay type: in vivo, Triticum aestivum
In short: as §1

wild oat = test: Test B pre/postemergence wild oat; assay type: in vivo, Avena fatua
In short: as §1

purple nutsedge = test: Test B pre/postemergence purple nutsedge; assay type: in vivo, Cyperus rotundus
In short: as §1

[1] = Preemergence, Rate 62 g/ha, scale of 0 to 10 where 0 is no effect and 10 is complete control
[2] = Preemergence, Rate 125 g/ha, scale of 0 to 10 where 0 is no effect and 10 is complete control
[3] = Preemergence, Rate 250 g/ha, scale 0 (no effect) to 10 (complete control)
[4] = Preemergence, Rate 500 g/ha, scale of 0 to 10 where 0 is no effect and 10 is complete control
[5] = Rate 250 g/ha, Postemergence, scale 0 to 10, 0 is no effect, 10 is complete control
[6] = Postemergence, Rate 62 g/ha, scale 0 to 10, 0 is no effect, 10 is complete control
[7] = Postemergence, Rate 125 g/ha, scale of 0 to 10 where 0 is no effect and 10 is complete control
[8] = Rate 500 g/ha, Postemergence, scale 0 to 10, 0 is no effect, 10 is complete control

For `CC(C)N(C(=O)n1oc(=O)n(CC(F)F)c1=O)c1ccc(F)cc1F` [Compound 711], the “Bedstraw plant response rating” value (bedstraw; [1]) was 2, the “Plant response rating, Bedstraw” value (bedstraw; [2]) was 3 and the “Bedstraw plant response rating” value (bedstraw; [3]) was 6. The “Plant response rating, Bedstraw” value (bedstraw; [4]) was 7, the “Bedstraw plant response rating” value (bedstraw; [5]) was 8 and the “Plant response rating, Blackgrass” value (blackgrass; [6]) was 3. The “Blackgrass plant response rating” value (blackgrass; [7]) was 7, the “Blackgrass plant response rating” value (blackgrass; [1]) was 6 and the “Plant response rating, Blackgrass” value (blackgrass; [2]) was 6. For the same compound, the “Blackgrass plant response rating” value (blackgrass; [3]) was 8, the “Plant response rating, Blackgrass” value (blackgrass; [4]) was 9 and the “Blackgrass plant response rating” value (blackgrass; [5]) was 7. The “Blackgrass plant response rating” value (blackgrass; [8]) was 7, the “Plant response rating, B. signalgrass” value (surinam grass; [6]) was 4 and the “B. signalgrass plant response rating” value (surinam grass; [7]) was 6. For the same compound, the “B. signalgrass plant response rating” value (surinam grass; [1]) was 2, the “Plant response rating, B. signalgrass” value (surinam grass; [2]) was 2 and the “B. signalgrass plant response rating” value (surinam grass; [3]) was 7. The “Plant response rating, B. signalgrass” value (surinam grass; [4]) was 8, the “B. signalgrass plant response rating” value (surinam grass; [5]) was 6 and the “B. signalgrass plant response rating” value (surinam grass; [8]) was 8. The “Plant response rating, Cocklebur” value (cocklebur; [6]) was 1, the “Cocklebur plant response rating” value (cocklebur; [7]) was 1 and the “Cocklebur plant response rating” value (cocklebur; [1]) was 0. For the same compound, the “Plant response rating, Cocklebur” value (cocklebur; [2]) was 0, the “Cocklebur plant response rating” value (cocklebur; [3]) was 0 and the “Plant response rating, Cocklebur” value (cocklebur; [4]) was 0. The “Cocklebur plant response rating” value (cocklebur; [5]) was 2, the “Cocklebur plant response rating” value (cocklebur; [8]) was 7 and the “Plant response rating, Corn” value (corn; [6]) was 0. The “Corn plant response rating” value (corn; [7]) was 0, the “Corn plant response rating” value (corn; [1]) was 0 and the “Plant response rating, Corn” value (corn; [2]) was 0. For the same compound, the “Corn plant response rating” value (corn; [3]) was 0, the “Corn plant response rating” value (corn; [5]) was 0 and the “Corn plant response rating” value (corn; [8]) was 4. For the same compound, the “Plant response rating, Crabgrass” value (crabgrass; [6]) was 4, the “Crabgrass plant response rating” value (crabgrass; [7]) was 8 and the “Crabgrass plant response rating” value (crabgrass; [1]) was 8. The “Plant response rating, Crabgrass” value (crabgrass; [2]) was 9, the “Crabgrass plant response rating” value (crabgrass; [3]) was 10 and the “Crabgrass plant response rating” value (crabgrass; [5]) was 9. For the same compound, the “Crabgrass plant response rating” value (crabgrass; [8]) was 10, the “Plant response rating, Giant foxtail” value (giant foxtail; [6]) was 6 and the “Giant foxtail plant response rating” value (giant foxtail; [7]) was 8. The “Giant foxtail plant response rating” value (giant foxtail; [1]) was 10, the “Plant response rating, Giant foxtail” value (giant foxtail; [2]) was 10 and the “Giant foxtail plant response rating” value (giant foxtail; [3]) was 10. For the same compound, the “Giant foxtail plant response rating” value (giant foxtail; [5]) was 9, the “Giant foxtail plant response rating” value (giant foxtail; [8]) was 9 and the “Plant response rating, Morningglory” value (morningglory; [6]) was 2. The “Morningglory plant response rating” value (morningglory; [7]) was 2, the “Morningglory plant response rating” value (morningglory; [1]) was 0 and the “Plant response rating, Morningglory” value (morningglory; [2]) was 1. For the same compound, the “Morningglory plant response rating” value (morningglory; [3]) was 3, the “Morningglory plant response rating” value (morningglory; [5]) was 4 and the “Morningglory plant response rating” value (morningglory; [8]) was 4. For the same compound, the “Plant response rating, Redroot pigweed” value (pigweed; [6]) was 3, the “Redroot pigweed plant response rating” value (pigweed; [7]) was 7 and the “Redroot pigweed plant response rating” value (pigweed; [1]) was 7. The “Plant response rating, Redroot pigweed” value (pigweed; [2]) was 7, the “Redroot pigweed plant response rating” value (pigweed; [3]) was 9 and the “Redroot pigweed plant response rating” value (pigweed; [5]) was 9. The “Redroot pigweed plant response rating” value (pigweed; [8]) was 10, the “Plant response rating, Rape” value (rape; [6]) was 0 and the “Rape plant response rating” value (rape; [7]) was 0. For the same compound, the “Rape plant response rating” value (rape; [1]) was 1, the “Plant response rating, Rape” value (rape; [2]) was 6 and the “Rape plant response rating” value (rape; [3]) was 7. The “Rape plant response rating” value (rape; [5]) was 2, the “Rape plant response rating” value (rape; [8]) was 4 and the “Plant response rating, Soybean” value (soybean; [6]) was 1. For the same compound, the “Soybean plant response rating” value (soybean; [7]) was 4, the “Soybean plant response rating” value (soybean; [1]) was 0 and the “Plant response rating, Soybean” value (soybean; [2]) was 0. The “Soybean plant response rating” value (soybean; [3]) was 0, the “Soybean plant response rating” value (soybean; [5]) was 5 and the “Soybean plant response rating” value (soybean; [8]) was 6. The “Plant response rating, Sugarbeets” value (sugar beet; [6]) was 1, the “Sugarbeets plant response rating” value (sugar beet; [7]) was 2 and the “Sugarbeets plant response rating” value (sugar beet; [1]) was 5. For the same compound, the “Plant response rating, Sugarbeets” value (sugar beet; [2]) was 6, the “Sugarbeets plant response rating” value (sugar beet; [3]) was 8 and the “Sugarbeets plant response rating” value (sugar beet; [5]) was 2. For the same compound, the “Sugarbeets plant response rating” value (sugar beet; [8]) was 3, the “Plant response rating, Velvetleaf” value (velvetleaf; [6]) was 3 and the “Velvetleaf plant response rating” value (velvetleaf; [7]) was 5. For the same compound, the “Velvetleaf plant response rating” value (velvetleaf; [1]) was 4, the “Plant response rating, Velvetleaf” value (velvetleaf; [2]) was 6 and the “Velvetleaf plant response rating” value (velvetleaf; [3]) was 6. For the same compound, the “Velvetleaf plant response rating” value (velvetleaf; [5]) was 6, the “Velvetleaf plant response rating” value (velvetleaf; [8]) was 6 and the “Plant response rating, Wheat” value (wheat; [6]) was 0. For the same compound, the “Wheat plant response rating” value (wheat; [7]) was 0, the “Wheat plant response rating” value (wheat; [1]) was 2 and the “Plant response rating, Wheat” value (wheat; [2]) was 6. The “Wheat plant response rating” value (wheat; [3]) was 8, the “Wheat plant response rating” value (wheat; [5]) was 3 and the “Wheat plant response rating” value (wheat; [8]) was 5. The “Plant response rating, Wild oats” value (wild oat; [6]) was 0, the “Wild oats plant response rating” value (wild oat; [7]) was 0 and the “Wild oats plant response rating” value (wild oat; [1]) was 7. The “Plant response rating, Wild oats” value (wild oat; [2]) was 7, the “Wild oats plant response rating” value (wild oat; [3]) was 9 and the “Wild oats plant response rating” value (wild oat; [5]) was 2. The “Wild oats plant response rating” value (wild oat; [8]) was 4, the “Plant response rating, Nutsedge” value (purple nutsedge; [6]) was 0 and the “Nutsedge plant response rating” value (purple nutsedge; [7]) was 0. For the same compound, the “Nutsedge plant response rating” value (purple nutsedge; [1]) was 0, the “Nutsedge plant response rating” value (purple nutsedge; [3]) was 0 and the “Nutsedge plant response rating” value (purple nutsedge; [5]) was 3. For the same compound, the “Nutsedge plant response rating” value (purple nutsedge; [8]) was 5.
